Measured values published in patent publication US8129396B2, “2-[1H-benzimidazol-2(3H)-ylidene]-2-(pyrimidin-2-yl)acetamides and 2-[benzothiazol-2(3H)-ylidene]-2-(pyrimidin-2-yl)acetamides as kinase inhibitors” (Telik, Inc., priority 2008, dated 2012).

Tests used:
Aurora A kinase = target: T1, Aurora A kinase (Homo sapiens, UniProt O14965); experiment: Aurora A kinase assay (IMAP fluorescence polarization); format: biochemical; details: 10 μM ATP; rounded to 1 significant figure; read-out: Aur-A IC50
T1 construct: purchased Upstate Biotech
T1 sequence (O14965 1-403): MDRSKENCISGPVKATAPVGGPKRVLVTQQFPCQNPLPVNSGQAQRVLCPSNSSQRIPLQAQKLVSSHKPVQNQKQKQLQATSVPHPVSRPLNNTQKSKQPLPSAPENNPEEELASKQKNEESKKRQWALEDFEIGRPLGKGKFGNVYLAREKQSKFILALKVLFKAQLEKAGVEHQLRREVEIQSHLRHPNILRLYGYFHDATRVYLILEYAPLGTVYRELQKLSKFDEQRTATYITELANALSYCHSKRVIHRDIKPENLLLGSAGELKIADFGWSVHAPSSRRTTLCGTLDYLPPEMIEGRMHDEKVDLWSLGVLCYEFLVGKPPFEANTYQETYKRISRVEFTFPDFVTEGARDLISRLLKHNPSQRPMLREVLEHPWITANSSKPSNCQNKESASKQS
In short: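 Compounds (eight 3-fold dilutions, 2.5% DMSO final) were preincubated 5 min at room temperature with Aurora A kinase in buffer with 1 mM DTT. Reaction with 100 nM fluorescein-PKAtide and 10 μM ATP ran 45 min at room temperature, then was stopped with IMAP binding reagent; fluorescence polarization was read after 30 min.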

Aurora B kinase = target: T2, Aurora B kinase (Homo sapiens, UniProt Q96GD4); experiment: Aurora B kinase assay (IMAP fluorescence polarization); format: biochemical; details: 10 μM ATP; rounded to 1 significant figure; read-out: Aur-B IC50
T2 construct: purchased BPS Bioscience
In short: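 Reaction started with 100 nM fluorescein-labelled PKAtide and 10 μM ATP, run 45 min at room temperature, then stopped with IMAP binding reagent (1:400). After 30 min shaking at room temperature, fluorescence polarization read; run in duplicate with solvent control.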

VEGFR2 kinase = target: T3, VEGFR2 kinase (Homo sapiens, UniProt P35968); experiment: VEGFR2 kinase assay; format: biochemical; details: 6 μM ATP, 1 mM MnCl2; rounded to 1 significant figure
T3 construct: purchased Cell Signaling Technology
In short: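 VEGFR2 phosphorylates CSKtide with 6 μM ATP and 1 mM MnCl2 for 1 hr, otherwise following the Aurora A kinase protocol. Detection by IMAP fluorescence polarization, binding reagent diluted 1:1200 in 1:1 binding buffer A/B. Run in duplicate with solvent control.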

p-H3 in HCT116 cells = experiment: Histone phosphorylation (p-H3) assay; format: cell-based; details: Homo sapiens, HCT-116; HCT116 cells, 4 hr incubation; read-out: p-H3 IC50
In short: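 HCT116 cells (2.5×10^4/well, attached overnight) treated 4 h with 8-point 3-fold compound dilutions at 0.5% DMSO. Lysates dot-blotted onto nitrocellulose and probed for p-H3 with β-actin on the same membrane, fluorescent secondary antibodies, Odyssey scan; duplicate wells.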

[1] = system: HCT116 (human colon carcinoma) cells; experiment: HCT116 cytotoxicity assay (CellTiter-Glo); format: cell-based; details: HCT-116, 72 h, cytotoxicity, three days culture, read-out: HCT116 IC50
[2] = system: HL60 (human promyelocytic leukemia) cells; experiment: HL60 cytotoxicity assay (CellTiter-Glo); format: cell-based; details: HL-60, 72 h, cytotoxicity, three days culture, read-out: HL60 IC50
[3] = system: HL60 (human promyelocytic leukemia) xenograft; experiment: HL60 xenograft assay, oral administration; format: in vivo, athymic nu/nu mice; details: for inhibition of tumor growth compared to vehicle: 150 mg/Kg by gavage once/day on days 1-5 and 8-10, measured 1-2 days after last treatment
Experimental: Male athymic nu/nu mice, 6-8 weeks old (about 20 g), were implanted subcutaneously in the right fore flank with about 1×10^7 cells of the HL60 (human promyelocytic leukemia) line that had been grown in antibiotic-free medium for at least two passages. About 6 days after tumor implantation, when the tumor weight was about 50-250 mg, the mice were assigned to treatment groups. […] […] Tumor growth inhibition was measured 1-2 days after the last day of treatment.

[4] = system: HCT116 (human colon carcinoma) xenograft; experiment: HCT116 xenograft assay, oral administration; format: in vivo, athymic nu/nu mice; details: for inhibition of tumor growth compared to vehicle: 150 mg/Kg by gavage once/day on days 1-5 and 8-12, measured 9 days after last treatment
Experimental: Male athymic nu/nu mice, 6-8 weeks old (about 20 g), were implanted subcutaneously in the right fore flank with about 1×10^7 cells of the HCT116 (human colon carcinoma) line that had been grown in antibiotic-free medium for at least two passages. About 14-21 days after tumor transplantation, when the tumor weight was about 50-250 mg, the mice were assigned to treatment groups. […] Groups of mice were treated with compounds 39A, 40A, 60A, 75A, 95A, and 117A at 150 mg/Kg by gavage once/day on days 1-5 and 8-12 from the start of treatment, with vehicle control. Tumor growth inhibition was measured 9 days after the last day of treatment.

[5] = system: HUVEC-2 (human umbilical vein endothelial cells); experiment: HUVEC VEGF-dependent proliferation assay (BrdU); format: cell-based; details: VEGF (25 ng/mL)-dependent proliferation, read-out: HUVEC IC50
In short: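 HUVEC-2 cells on gelatin got serially diluted compound (0.5% DMSO final), and VEGF (25 ng/mL) was added 2 hr later. BrdU (10 μM) went in after one day, with labelling for another day. VEGF-dependent proliferation was read by BrdU detection, in triplicate.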

Aurora kinase C = target: T4, Aurora kinase C (Homo sapiens, UniProt Q9UQB9); details: reported; cited from earlier work
T4 sequence (Q9UQB9 1-309): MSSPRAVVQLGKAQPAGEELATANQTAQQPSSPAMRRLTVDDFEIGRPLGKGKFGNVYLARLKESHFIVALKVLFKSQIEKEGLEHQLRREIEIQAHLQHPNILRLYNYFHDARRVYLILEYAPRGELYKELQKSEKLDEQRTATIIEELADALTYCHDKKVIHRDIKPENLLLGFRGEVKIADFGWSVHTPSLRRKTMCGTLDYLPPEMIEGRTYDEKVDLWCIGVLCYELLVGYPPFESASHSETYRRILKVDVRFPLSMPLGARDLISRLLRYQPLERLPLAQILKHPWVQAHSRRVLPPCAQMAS

[6] = dissolved at 10 mg/mL in 0.1M sodium acetate pH5

T2 sequence (Q96GD4 whole entry): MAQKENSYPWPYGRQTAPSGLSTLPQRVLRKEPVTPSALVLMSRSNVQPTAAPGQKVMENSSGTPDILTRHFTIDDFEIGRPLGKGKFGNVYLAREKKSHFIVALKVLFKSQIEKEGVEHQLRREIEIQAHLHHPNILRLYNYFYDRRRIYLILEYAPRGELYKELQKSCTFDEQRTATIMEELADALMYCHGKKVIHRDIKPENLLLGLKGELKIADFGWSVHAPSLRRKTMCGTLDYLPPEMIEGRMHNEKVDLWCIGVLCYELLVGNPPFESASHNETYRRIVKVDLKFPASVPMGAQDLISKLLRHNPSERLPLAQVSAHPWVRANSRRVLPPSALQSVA
T3 sequence (P35968 20-1356): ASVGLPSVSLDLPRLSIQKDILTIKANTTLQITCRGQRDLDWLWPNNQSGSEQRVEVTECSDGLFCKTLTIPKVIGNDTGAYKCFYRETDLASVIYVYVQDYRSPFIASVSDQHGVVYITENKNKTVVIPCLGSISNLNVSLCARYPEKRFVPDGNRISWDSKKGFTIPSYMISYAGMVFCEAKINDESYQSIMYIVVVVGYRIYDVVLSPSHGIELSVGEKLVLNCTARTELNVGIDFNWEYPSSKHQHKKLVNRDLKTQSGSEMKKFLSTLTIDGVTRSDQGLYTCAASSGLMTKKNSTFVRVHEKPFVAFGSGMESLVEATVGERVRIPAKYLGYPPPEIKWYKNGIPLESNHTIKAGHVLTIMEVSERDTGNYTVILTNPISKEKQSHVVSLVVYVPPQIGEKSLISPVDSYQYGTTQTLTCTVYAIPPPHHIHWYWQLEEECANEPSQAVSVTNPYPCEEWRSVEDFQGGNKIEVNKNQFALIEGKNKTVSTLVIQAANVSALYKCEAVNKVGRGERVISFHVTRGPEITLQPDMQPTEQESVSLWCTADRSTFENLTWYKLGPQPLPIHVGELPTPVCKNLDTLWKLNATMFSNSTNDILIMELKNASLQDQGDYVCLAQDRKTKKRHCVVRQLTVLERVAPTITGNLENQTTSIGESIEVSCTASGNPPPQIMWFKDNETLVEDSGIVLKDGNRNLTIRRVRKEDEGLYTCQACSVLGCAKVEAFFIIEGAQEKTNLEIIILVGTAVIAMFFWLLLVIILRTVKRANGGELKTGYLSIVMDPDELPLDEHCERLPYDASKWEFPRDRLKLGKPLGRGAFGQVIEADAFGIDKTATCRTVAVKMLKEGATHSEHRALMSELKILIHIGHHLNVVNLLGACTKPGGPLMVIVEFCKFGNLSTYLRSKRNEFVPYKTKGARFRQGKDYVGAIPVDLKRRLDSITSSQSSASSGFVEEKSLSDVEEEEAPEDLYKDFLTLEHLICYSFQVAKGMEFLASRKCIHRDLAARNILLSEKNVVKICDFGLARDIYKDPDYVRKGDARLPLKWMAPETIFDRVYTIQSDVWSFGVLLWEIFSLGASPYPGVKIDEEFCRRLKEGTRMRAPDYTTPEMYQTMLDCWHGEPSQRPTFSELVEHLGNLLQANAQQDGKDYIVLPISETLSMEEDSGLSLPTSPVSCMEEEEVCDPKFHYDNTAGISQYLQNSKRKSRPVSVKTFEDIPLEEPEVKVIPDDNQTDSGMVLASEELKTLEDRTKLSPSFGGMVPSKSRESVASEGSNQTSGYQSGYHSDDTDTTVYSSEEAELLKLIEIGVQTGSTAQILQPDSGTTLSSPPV

Row | IC50 (Aurora A kinase) [nM] | IC50 (Aurora B kinase) [nM] | IC50 (VEGFR2 kinase) [nM] | IC50 (p-H3 in HCT116 cells) [nM] | SMILES | IC50 [1] [nM] | IC50 [2] [nM] | tumor inhibition relative to vehicle ([3]; dissolved at 4 mg/mL in 0.1M sodium acetate pH5, dosing at 40 mg/mL) [%] | tumor inhibition relative to vehicle ([4]; dissolved at 4 mg/mL in 0.1M sodium acetate pH5) [%] | IC50 [5] [nM] | inhibition of tumor growth compared to vehicle [3] [%] | tumor inhibition relative to vehicle [3, 6] [%] | IC50 (Aurora kinase C) [nM] | inhibition of tumor growth compared to vehicle [4] [%]
1 | 20 | 2 | 30 | 90 | CCN(CC)CC(=O)N(CC)c1ccc2c(c1)N/C(=C(/C(N)=O)c1nccc(C(F)(F)F)n1)N2 [Compound 139A] | 30 | 40 | 65 | 46 |  |  |  |  | 
2 | 5 | 4 | 20 | 50 | NC(=O)/C(=C1\Nc2ccc(NC(=O)CCCN3CCOCC3)cc2N1)c1nccc(C(F)(F)F)n1 [Compound 85A] | 300 | 60 |  |  | 20 | 45 |  |  | 
3 | 4 | 6 | 40 | 300 | CCN(C(=O)C1CCN(C)CC1)c1ccc2c(c1)N/C(=C(/C(N)=O)c1nccc(C(F)(F)F)n1)N2 [Compound 141A] | 900 | 1000 |  |  | 20 |  | 49 |  | 
4 | 2 | 4 | 10 | 300 | CN1CCCC[C@H]1C(=O)Nc1ccc2c(c1)N/C(=C(/C(N)=O)c1nccc(C(F)(F)F)n1)N2 [Compound 142A] | 300 | 200 |  |  | 90 |  | 89 |  | 
5 |  |  |  |  | Cc1nc(N)sc1-c1ccnc(Nc2ccc(N3CCOCC3)cc2)n1 [CYC116] |  |  |  |  |  |  |  | < 100 | 
6 | 6 | 4 | 4 | 100 | CCN(CCCN1CCOCC1)C(=O)c1ccc2c(c1)N/C(=C(/C(N)=O)c1nccc(C(F)(F)F)n1)N2 [Compound 41A] | 700 | 100 |  |  | 200 | 81 |  |  | 
7 | 60 | 10 | 50 | 400 | CCN(CC)CC(=O)Nc1ccc2c(c1)N/C(=C(/C(N)=O)c1nccc(C(F)(F)F)n1)N2 [Compound 75A] | 1000 |  |  |  | 200 | 72 |  |  | 60
8 | 7 | 9 | 20 | 1000 | NC(=O)/C(=C1\Nc2ccc(CCN3CCOCC3)cc2S1)c1nccc(C(F)(F)F)n1 [Compound 101A] | 1000 | 2000 |  |  | 50 | 38 |  |  | 
9 | 20 | 4 | 20 | 50 | NC(=O)/C(=C1\Nc2ccc(CCn3ccnc3)cc2S1)c1nccc(C(F)(F)F)n1 [Compound 95A] | 2000 | 2000 |  |  | 50 | 59 |  |  | 61
10 | 4 | 6 | 30 | 200 | CN1CCCC[C@@H]1C(=O)Nc1ccc2c(c1)N/C(=C(/C(N)=O)c1nccc(C(F)(F)F)n1)N2 [Compound 143A] | 300 | 300 |  |  | 80 |  | 65 |  | 
11 | 3 | 7 | 3 | 500 | NC(=O)C(=C1Nc2ccc(C(=O)NCCCN3CCOCC3)cc2S1)c1nccc(C(F)(F)F)n1 (single isomer, unassigned) [Compound 40A, 2-(6-{[3-(4-morpholinyl)propyl]aminocarbonyl}-benzothiazol-2(3H)-ylidene)-2-(4-trifluoromethylpyrimidin-2-yl)acetamide] | 200 | 7000 |  |  | 30 |  |  |  | 18
12 | 8 | 7 | 9 | 100 | CN1CCC[C@H]1C(=O)Nc1ccc2c(c1)N/C(=C(/C(N)=O)c1nccc(C(F)(F)F)n1)N2 [Compound 77A] | 200 | 300 |  |  | 90 | 75 |  |  | 
13 | 10 | 8 | 20 | 300 | NC(=O)C(=C1Nc2ccc(OCCn3ccnc3)cc2S1)c1nccc(C(F)(F)F)n1 (single isomer, unassigned) [Compound 117A, 2-{6-[2-(1H-imidazol-1-yl)ethoxy]benzothiazol-2(3H)-ylidene}-2-(4-trifluoromethylpyrimidin-2-yl)acetamide] | 800 |  |  |  | 60 |  |  |  | 42
14 | 10 | 5 | 7 | 900 | NC(=O)C(=C1Nc2ccc(C(=O)NCCCN3CCOCC3)cc2N1)c1nccc(C(F)(F)F)n1 (single isomer, unassigned) [Compound 39A, 2-(5-{[3-(4-morpholinyl)propyl]aminocarbonyl}-1H-benzimidazol-2(3H)-ylidene)-2-(4-trifluoromethylpyrimidin-2-yl)acetamide] | 300 | 500 |  |  | 60 | 47 |  |  | 56
15 | 20 | 7 | 20 | 900 | NC(=O)/C(=C1\Nc2ccc(C(=O)NCCCn3ccnc3)cc2N1)c1nccc(C(F)(F)F)n1 [Compound 45A] | 500 | 100 |  |  | 10 |  |  |  | 
16 | 4 | 8 | 30 | 200 | NC(=O)/C(=C1\Nc2ccc(NC(=O)Cn3ccnc3)cc2N1)c1nccc(C(F)(F)F)n1 [Compound 86A] | 400 | 800 |  |  | 30 |  |  |  | 
17 | 10 | 7 | 5 | 200 | NC(=O)/C(=C1\Nc2ccc(C(=O)N3CCNCC3)cc2N1)c1nccc(C(F)(F)F)n1 [Compound 60A] | 200 |  |  |  | 80 |  |  |  | 37
